According to patent publication US20120178124A1, “STEROL SIDE CHAIN-CLEAVING ENZYME PROTEIN AND USE THEREOF” (MITSUBISHI CHEMICAL CORPORATION, priority 2009, published 2012):

How the values were obtained:
[1] = system: CYP204A1; conditions: strain BP172, same reaction as Example 6 (28° C., 5 hours)
Description: Novosphingobium aromaticivorans (ATCC 700278) was inoculated into an L medium, and it was then cultured at 30° C. for 2 days. Thereafter, genomic DNA was extracted from the cell mass obtained in the same manner as that of Example 1. A fragment comprising a CYPSS204A1 gene and a ferredoxin gene located downstream thereof was amplified from the above-described genomic DNA by using a primer CYP-5F (SEQ ID NO: 9) and a primer CYP-6R (SEQ ID NO: 10) and also using La Taq polymerase (manufactured by Takara Bio INC.). The temperature conditions applied during this operation were 94° C./3 min, 30 cycles of (98° C./20 sec, 63° C./30 sec, and 68° C./2 min), and 72° C./5 min.
Escherichia coli BL21(DE3) was transformed with this plasmid, and the obtained cell strain was named as BP172.
(§1) The Escherichia coli expression strain BP215 was inoculated into 2 ml of an M9 mix medium (Na2HPO4: 0.68%, KH2PO4: 0.3%, NaCl: 0.05%, NH4C;: 0.01%, Casamino acid: 1%, D-Glucose: 0.4%, CaCl2: 0.1 mM, MgCl2: 1 mM, Thiamine: 0.002%, FeSO4: 0.1 mM, Carbenicillin: 0.005%), and it was then subjected to shaking culture at 30° C. for 17 hours, so as to obtain pre-culture solution. 0.25 ml of this pre-culture solution was inoculated into 25 ml of the main culture medium (Na2HPO4: 0.68%, KH2PO4: 0.3%, NaCl: 0.05%, NH4Cl: 0.01%, Casamino acid: 1%, CaCl2: 0.1 mM, MgCl2: 1 mM, Thiamine: 0.002%, FeSO4: 0.1 mM, Carbenicillin: 0.005%, Overnight Express™ solution: 7%, 5-Aminolevlic acid: 0.008%) using Overnight Express™ Autoinduction System (Novagen Cat. No. 71300-4), and it was then subjected to shaking culture at 25° C. for 24 hours. 5 ml of the obtained main culture solution was centrifuged (3500 rpm, 10 minutes) to obtain cell mass, and 1 ml of CV2 buffer (50 mM (pH) potassium phosphate buffer containing glycerol: 2%, carbenicillin: 0.005%, and isopropyl β-D-1-thiogalactopyranoside: 0.1 mM) was added to the obtained cell mass. Thereafter, 0.01 ml of the methanol solution of 1% 4-cholesten-3-one and 0.02 ml of an aqueous solution of 25% methyl-β-cyclodextrin were added to the mixed solution, and the obtained mixture was then shaken at 28° C. for 5 hours for the reaction. After completion of the reaction, 4 ml of methanol was added to the reaction solution, and they were then fully mixed. The obtained mixture was centrifuged, and the upper layer was then analyzed by HPLC.
As substrates, 4-cholesten-3-one, cholesterol, 7-dehydrocholesterol, ergosterol, 13-sitosterol, stigmasterol, campesterol, desmosterol, (20S)-20-hydroxycholest-4-en-3-one, (22R)-22-hydroxycholest-4-en-3-one, (20R,22R)-20,22-dihydroxycholest-4-en-3-one, and (20R,22S)-20,22-dihydroxycholest-4-en-3-one were used. Each substrate was subjected to the same reaction as that of Example 6, separately, and the generated product was then analyzed by HPLC.

[2] = biological target: T1, CYP11A (Homo sapiens, UniProt P05108); test: Conversion reaction of substrates by CYP11A-expressing Escherichia coli; format: cell-based; conditions: for added substrate remained: same reaction as Example 6; for Conversion rate: same reaction as Example 6 (28° C., 5 hours)
T1 construct: A 1.45-kb CYP11A1 gene fragment amplified as a result of the above-described reaction; expressed in transfected cells; host or cells: Escherichia coli BL21(DE3), plasmid pCYP11A-ARX (strain BL21CYP11)
T1 sequence (P05108 40-521): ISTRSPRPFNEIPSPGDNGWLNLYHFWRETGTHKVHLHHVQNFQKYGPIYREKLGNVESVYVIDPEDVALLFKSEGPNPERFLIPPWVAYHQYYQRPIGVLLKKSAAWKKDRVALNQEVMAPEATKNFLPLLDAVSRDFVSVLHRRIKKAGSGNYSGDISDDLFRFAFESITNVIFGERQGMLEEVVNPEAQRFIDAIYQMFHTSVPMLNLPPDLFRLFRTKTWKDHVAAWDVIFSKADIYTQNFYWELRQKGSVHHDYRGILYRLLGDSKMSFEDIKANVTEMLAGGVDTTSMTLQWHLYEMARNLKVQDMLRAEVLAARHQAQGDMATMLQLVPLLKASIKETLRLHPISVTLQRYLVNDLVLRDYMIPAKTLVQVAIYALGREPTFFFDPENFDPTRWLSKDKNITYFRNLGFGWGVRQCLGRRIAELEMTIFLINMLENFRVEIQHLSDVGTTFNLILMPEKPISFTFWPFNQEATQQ
Description: as §1
A commercially available human testis cDNA (Origene Technologies, Inc.) was used as a template, and a CYP11A1 gene was amplified by PCR using a primer CYP11A-1F (SEQ ID NO: 19) and a primer CYP11A-2R (SEQ ID NO: 20), and also using KOD plus polymerase (TOYOBO Co., Ltd.). The temperature conditions applied during the PCR were 94° C./3 min, 30 cycles of (94° C./30 sec, 55° C./60 sec, and 72° C./90sec), and 72° C./5 min.
A 1.45-kb CYP11A1 gene fragment amplified as a result of the above-described reaction was purified using QIAquick PCR purification Kit (manufactured by QIAGEN), and it was then digested with Nde I and Spe I. Thereafter, the digest was ligated to Escherichia coli expression vector pT7NS-camAB, using T4 DNA ligase, and Escherichia coli DH5α was then transformed with the obtained expression vector, so as to construct a plasmid pCYP11A-camAB. Subsequently, using T4 DNA ligase, the previously prepared bovine-derived adrenodoxin reductase protein-adrenodoxin gene (adr-adx) fragment was inserted into and ligated to each of the Spe I and Bam HI sites of the above-described plasmid, and Escherichia coli DH5a was then transformed with the obtained plasmid, so as to construct plasmid pCYP11A-ARX. Thereafter, Escherichia coli BL21(DE3) was transformed with the thus constructed plasmid, and the obtained cell strain was named as BL21CYP11. The used adx-adr fragment was amplified by PCR with a plasmid pKARX (Sawada et. al. Eur. J. Biochem. 265, 950-956,1999) as a template, using primer bAdxR-1F (SEQ ID NO: 21) and primer bAdx-2R (SEQ ID NO: 22), and also using KOD plus polymerase (manufactured by TOYOBO Co., Ltd.). The temperature condition applied during the PCR were 94° C./3 min, 25 cycles of (94° C./30 sec, 60° C./30 sec, and 72° C./120sec), and 72° C./5 min.
Each substrate was subjected to the same reaction as that of Example 6, separately, and the reaction solution was then subjected to liquid separation using 1 ml of ethyl acetate. The reaction product and the substrate were extracted, and were then analyzed by HPLC.

[3] = system: CYPSS204A; test: Conversion reaction of substrates by Escherichia coli expression strain BP215; format: cell-based, Sphingomonas subterranea NBRC 16086; conditions: strain BP215, 28° C., 5 hours; for Conversion rate: to progesterone, pregnenolone or 7-dehydropregnenolone
Description: The temperature conditions applied during the PCR were 95° C./5 min, 30 cycles of (98° C./30 sec, 60° C./30 sec, and 68° C./2 min), and 68° C./10 min.
Analysis conditions: Using Chromolith speed rod RP18e (50×4.6 mm) column, 50%→100% CH3CN gradient (0 to 3 min) and 100% CH3CN (3 to 8 min) were used as a mobile phase, and detection was carried out at a flow rate of 2 ml/min using CAD™ (Charged Aerosol Detection) and MS.

[4] = substrate: CC(C)CCC[C@@H](C)[C@H]1CC[C@H]2[C@@H]3CCC4=CC(=O)CC[C@]4(C)[C@H]3CC[C@]12C; test: purified protein, by the assay type; conditions: other: 4-cholesten-3-one 0.1 to 500 μM, pH 7.5, 15° C., 60 minutes, Lineweaver-Burk plot

**Q.** With `CC(C)=CCC[C@@H](C)[C@H]1CC[C@H]2[C@@H]3CC=C4C[C@@H](O)CC[C@]4(C)[C@H]3CC[C@]12C` [desmosterol] as the molecule, how does the Conversion rate [1] read?
**A.** 66.1%

**Q.** What about the added substrate remained [2] of the same molecule?
**A.** 99.6%

**Q.** What about the Conversion rate [2] of the same molecule?
**A.** 1.2%

**Q.** What about the “accumulated amount of side-chain cleavage product” value [3] of the same molecule?
**A.** 71.7 mg/L

**Q.** And the added substrate remained [3]?
**A.** 21.3%

**Q.** What about the Conversion rate [3] of the same molecule?
**A.** 71.7%

**Q.** What does the source list for `CC(C)CC[C@H](O)[C@](C)(O)[C@H]1CC[C@H]2[C@@H]3CCC4=CC(=O)CC[C@]4(C)[C@H]3CC[C@]12C` [(20R,22S)-20,22-dihydroxycholest-4-en-3-one]?
**A.** Conversion rate [1]: 41.7%; added substrate remained [2]: 100%; Conversion rate [2]: 0%; added substrate remained [3]: 0.6%; Conversion rate [3]: 69.8%

**Q.** Which Conversion rate [1] does the source give for `CC(C)[C@H](C)CC[C@@H](C)[C@H]1CC[C@H]2[C@@H]3CC=C4C[C@@H](O)CC[C@]4(C)[C@H]3CC[C@]12C` [campesterol] here?
**A.** 31.3%

**Q.** What about the added substrate remained [2] of the same molecule?
**A.** 99.1%

**Q.** And the Conversion rate [2]?
**A.** 1.0%

**Q.** What about the Conversion rate ([2]; listed as Cam) of the same molecule?
**A.** 1%

**Q.** What about the “accumulated amount of side-chain cleavage product” value [3] of the same molecule?
**A.** 27.9 mg/L

**Q.** And the added substrate remained [3]?
**A.** 25.5%

**Q.** And the Conversion rate [3]?
**A.** 27.9%

B1: Novosphingobium aromaticivorans ATCC 700278 P450scc CYP204A1, wild type, SEQ ID NO: 23 (Novosphingobium aromaticivorans DSM 12444) (protein)
chain: MARAATAAGNGLPLLDGGVPLLGHLAQFFRDPVSVLKRGYRSKGRLFAMNFMGQRMNVMLGPEHNRFFFEETDKLLSIRESMPFFLKMFSPEFYSFAEMDEYLRQRSIIMPRFKAASMKQYVPVMVEESLNLVERLGEEGEFDLIPTLGPVVMDIAAHSFMGREFHEKLGHEFFELFRDFSGGMEFVLPLWLPTPKMVKSQRAKRKLHAILQSWIDKRRAAPLDPPDFFQTMIETKYPDGRPVPDEIIRHLILLLVWAGHETTAGQVSWALADLLQNPDYQKVLRGEISSLLGGSDGRDLGWEQAVAMEKMDLALRETERLHPVAYMLSRKARADIERDGYVIRKGEFVLLAPSVSHRMEETFRNPDAYDPERFNPANPDAQIESNSLIGFGGGVHRCAGVNFARMEMKVLVAILLQNFDMELMDEVRPIAGASTYWPAQPCRVRYRRRKLDGSEAGADMAALARAAGCPAHT
**Q.** For B1, which Km [4] is on record?
**A.** 1.0 µM
